Assay results reported in patent US20230125052A1, “RED BLOOD CELL-DERIVED VESICLE” (Imperial College Innovations Limited, priority 2019, published 2023).
Values belong to the molecule of their own block, whether it stands above or below them. Square brackets hold non-standard residues; d marks the D form. Side chains are listed from the residue outwards. Ends that are not written are not given here. maleimidomethyl‑cyclohexane‑carboxamide = linker coupling the Cys to DSPE; DSPE = DSPE lipid anchoring the peptide in the vesicle membrane

What was measured:
[1] = system: AA-induced platelet aggregation; assay: In vitro antiplatelet aggregation assay, arachidonic acid (AA)-induced; format: cell-based, sheep; details: Ovis aries, equivalent ASA concentration of 0.1 mM, read-out: Percentage of inhibition of AA-induced platelet aggregation
Experimental: (§1) The final platelet count was adjusted to 2 × 10^8 platelets/mL. 150 µL of PRP was seeded in 96-well plates and was incubated with 50 µL of various formulations: ASA-RBCVs, ASA-RGD-RBCVs, ASA-cRGD-PEG-RBCVs or ASA (equivalent ASA concentration of 0.1 mM) in the presence of 10 µL platelet agonist thrombin in PBS (4 µM), arachidonic acid (AA) in PBS (400 µM) or adenosine diphosphate (ADP) in PBS (15 µM). After incubation under shaking at 37° C. for 40 min, the absorbance at 595 nm was measured by a GloMax-Multi Microplate Multimode Reader (Promega, USA). The aggregation percentage was calculated by the equation 2. From the platelet aggregation percentage and comparison to aggregation of PBS without samples, the inhibition percentage was calculated by the equation 3.

[2] = system: ADP-induced platelet aggregation; assay: In vitro antiplatelet aggregation assay, ADP-induced; format: cell-based, sheep; details: Ovis aries, equivalent ASA concentration of 0.1 mM, read-out: Percentage of inhibition of ADP-induced platelet aggregation
Experimental: as §1

[3] = system: thrombin-induced platelet aggregation; assay: In vitro antiplatelet aggregation assay, thrombin-induced; format: cell-based, sheep; details: Ovis aries, equivalent ASA concentration of 0.1 mM, read-out: Percentage of inhibition of thrombin-induced platelet aggregation
Experimental: as §1

[4] = system: thrombin-induced thrombus in sheep blood; assay: In vitro antithrombotic assay (wet thrombus weight); format: cell-based; details: equivalent ASA 0.1 mM, 37° C., 30 min
Experimental: 200 µL of sheep blood was added into a weighted tube. Then, 50 µL specific formulation (PBS, ASA-RBCVs, ASA-RGD-RBCVs, ASA-cRGD-PEG-RBCVs or ASA at an equivalent ASA concentration of 0.1 mM) was added in the tube, and then 10 µL of thrombin in PBS (4 µM) was added in each well and incubated at 37° C. under shaking for 30 min. Finally, the un-clotted blood was removed to obtain the weight of the wet clotted thrombus.

[5] = system: fibrinogen mediated platelet aggregation in platelet-rich plasma (active αIIbβ3); format: cell-based, sheep
Experimental: Binding affinity of free liner RGD or cRGD peptides to activated platelets can be indicated by a half maximal inhibitory concentration (IC50) value, which is the peptide concentration required to inhibit fibrinogen mediated platelet aggregation in platelet-rich plasma (PRP) by 50%. PRP was incubated with various concentrations of liner RGD or cRGD peptides in the presence of platelet agonist, thrombin (4 µM) for 30 min under stirring. The platelet aggregation percentage was determined with a GloMax-Multi Microplate Multimode Reader (Promega, USA) by measuring the absorbance at 595 nm. The platelet aggregation percentage was calculated by the following equation: […]
where Ao is the initial absorbance at 595 nm, and At is the absorbance at 595 nm after incubation.
The percentage platelet aggregation inhibition was calculated by the following equation: […]
where PAPBS is the platelet aggregation in the PRP control in the presence of thrombin and PBS only (no peptides), and PAs is the platelet aggregation in the PRP sample in the presence of thrombin and peptides.

[6] = biological target: active GPIIb-IIIa (αIIbβ3) integrin on thrombin-activated platelets (sheep); assay: cell-based or functional assay
Halo blood clots = assay: Blood clot lysis in a Halo blood clot model; format: cell-based, sheep; details: after 45 min of treatment
Experimental: Briefly, a clotting mixture (5 mL of buffer containing 66 mM Tris-HCl, 130 mM NaCl and 45 mM CaCl2; 5 µL of 1 µM thrombin, pH 7.4) was freshly prepared. In a 96-well microplate, 5 µL of this clotting mixture was placed on one side of the well bottom, then 15 µL of whole blood was added on the opposite side of the well bottom. Clotting was initiated by mixing the two drops with a pipette tip in a circular motion to form a homogenous halo shape of blood around the edge of the well bottom, leaving the centre area empty. The plate was covered and incubated at 37° C. for 30 min. After clot formation, 80 µL tPA-RBCVs, tPA-RGD-RBCVs, tPA-cRGD-PEG-RBCVs and free tPA (equivalent tPA dose of 1 mg mL^-1) were added simultaneously into respective wells containing halo clots. The dissolution of the halo clots was determined with a plate reader GloMax-Multi Microplate Multimode Reader (Promega, USA) by measuring absorbance at 495 nm caused by RBCs progressively covering the centre of the well after clot degradation at 37° C. […] The percentage of clot dissolution was calculated according to the following equation: […]
where As is the absorbance of well at 495 nm after incubation with samples; An is the absorbance of negative control well at 495 nm; Ap is the absorbance of positive control well at 495 nm.

fibrin clot = assay: Fibrin clot lysis, agar plate assay, in the presence of activated platelets; format: biochemical; details: equivalent tPA 1 mg mL^-1, 37° C. overnight, activated platelets present
Experimental: Fibrin clot lysis by the tPA-loaded vesicles was measured by an agar plate assay. Briefly, 300 mg agar was dissolved in buffer mixture (15 mL of 0.05 M Tris-HCl buffer at pH 7.2 and 5 mL of 0.025 M CaCl2 solution). 50 mg Fibrinogen was dissolved in 10 mL of Tris-HCl buffer (0.05 M, pH 7.2). The agar solution was mixed with the fibrinogen solution, and then 10 µL thrombin (4.0 µM) was added under stirring for 1 min. The resulting mixture was spread carefully on a transparent plastic plate and homogeneous gels were obtained at 37° C. after 3h. […] were created in each plate and 5 µL of plasminogen solution (1 mg mL^-1) was then added into each sample well. PBS buffer, tPA-RBCVs, tPA-RGD-RBCVs, tPA-cRGD-PEG-RBCVs and free tPA (equivalent tPA dose of 1 mg mL^-1) were added into respective sample wells and incubated at 37° C. overnight. The area of the lysed zone in each well was measured to evaluate the degree of fibrin clot lysis.

[7] = in circulation, background; cited from earlier work
[8] = biological target: T1, active GPIIb-IIIa (αIIbβ3) integrin on thrombin-activated platelets (sheep, UniProt A0ACI6RZ73 32-1033; A0ACI6S117 125-886); assay: flow cytometry on thrombin-activated platelets; reference is uncoated tPA-RBCVs
T1 construct: whole, on cells; also called active αIIbβ3
Experimental: (§2) 2 mL platelets (1.0 × 10⁸ mL⁻¹) were seeded in 6-well plates and activated by incubation with 100 µL thrombin (1 U/mL) for at least 20 min. Inactivated platelets or thrombin-activated platelets were incubated with various FITC-labelled tPA-loaded vesicle formulations (equivalent tPA concentration of 0.2 mg mL⁻¹). Free vesicles, which were not attached to platelets, were removed by centrifugation. Data for 1.0 × 10⁴ gated events were collected and analysed using a BD Fortessa II flow cytometer.

[9] = biological target: T1, active GPIIb-IIIa (αIIbβ3) integrin on …; assay: MFI of confocal images of thrombin-activated platelets; reference is uncoated tPA-RBCVs
Experimental: 2 mL platelets (1.0 × 10⁸ mL⁻¹) were seeded in 6-well plates, with a collagen-coated glass coverslip on the bottom of each well. After 30 min, 100 µL thrombin (1 U/mL) was added onto the platelet-adhered coverslips to ensure activation of platelets at least 20 min. Inactivated platelets or thrombin-activated platelets were incubated with various FITC-labelled tPA-loaded vesicle formulations (equivalent tPA concentration of 0.2 mg mL⁻¹). The platelets were then fixed with 4.0% formaldehyde for 30 min, followed by rinsing with pH 7.4 PBS buffer for three times. Subsequently, the resulting slides were mounted and observed with a Leica SP₅ MP confocal microscope.

[10] = biological target: T1, active GPIIb-IIIa (αIIbβ3) integrin on …; assay: cell-based or functional assay
[11] = biological target: T1, active GPIIb-IIIa (αIIbβ3) integrin on …; assay: flow cytometry on thrombin-activated platelets; reference is uncoated RBCVs
Experimental: as §2, with “NBD-labelled RBCV” for “FITC-labelled tPA-loaded vesicle”, “NBD-PE” for “tPA concentration”, “1.0 × 10⁻⁷ mol).” for “0.2 mg mL⁻¹).”

[12] = biological target: T1, active GPIIb-IIIa (αIIbβ3) integrin on …; assay: MFI of confocal images of thrombin-activated platelets; reference is uncoated RBCVs

T1 sequence (chain, as listed by the source, chain 1 of 2): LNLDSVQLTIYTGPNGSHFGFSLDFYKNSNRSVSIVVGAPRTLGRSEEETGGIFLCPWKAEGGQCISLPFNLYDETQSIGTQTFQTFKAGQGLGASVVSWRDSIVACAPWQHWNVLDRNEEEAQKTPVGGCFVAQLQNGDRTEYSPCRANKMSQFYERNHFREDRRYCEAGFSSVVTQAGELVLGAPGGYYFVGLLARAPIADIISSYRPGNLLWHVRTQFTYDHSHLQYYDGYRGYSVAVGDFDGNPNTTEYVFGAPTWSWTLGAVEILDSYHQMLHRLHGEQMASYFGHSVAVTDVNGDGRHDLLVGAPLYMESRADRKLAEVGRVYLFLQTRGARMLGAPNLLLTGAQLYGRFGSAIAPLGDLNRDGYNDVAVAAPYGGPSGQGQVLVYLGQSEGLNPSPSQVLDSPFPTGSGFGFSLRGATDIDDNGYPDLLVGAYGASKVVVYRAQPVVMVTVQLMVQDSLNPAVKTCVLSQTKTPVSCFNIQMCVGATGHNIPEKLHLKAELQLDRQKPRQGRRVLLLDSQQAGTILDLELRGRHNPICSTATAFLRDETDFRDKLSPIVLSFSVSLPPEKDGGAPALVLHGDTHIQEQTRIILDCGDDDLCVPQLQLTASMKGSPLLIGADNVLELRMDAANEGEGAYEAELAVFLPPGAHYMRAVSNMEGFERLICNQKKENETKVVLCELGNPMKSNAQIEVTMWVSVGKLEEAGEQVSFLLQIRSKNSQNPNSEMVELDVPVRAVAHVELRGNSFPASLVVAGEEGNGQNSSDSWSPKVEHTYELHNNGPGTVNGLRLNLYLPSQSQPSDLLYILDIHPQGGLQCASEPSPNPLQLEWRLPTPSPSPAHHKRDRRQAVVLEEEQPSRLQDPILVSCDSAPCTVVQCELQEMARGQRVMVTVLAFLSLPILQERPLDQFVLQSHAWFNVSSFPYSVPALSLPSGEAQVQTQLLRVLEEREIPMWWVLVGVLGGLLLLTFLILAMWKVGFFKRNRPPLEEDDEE
T1 sequence (chain, as listed by the source, chain 2 of 2): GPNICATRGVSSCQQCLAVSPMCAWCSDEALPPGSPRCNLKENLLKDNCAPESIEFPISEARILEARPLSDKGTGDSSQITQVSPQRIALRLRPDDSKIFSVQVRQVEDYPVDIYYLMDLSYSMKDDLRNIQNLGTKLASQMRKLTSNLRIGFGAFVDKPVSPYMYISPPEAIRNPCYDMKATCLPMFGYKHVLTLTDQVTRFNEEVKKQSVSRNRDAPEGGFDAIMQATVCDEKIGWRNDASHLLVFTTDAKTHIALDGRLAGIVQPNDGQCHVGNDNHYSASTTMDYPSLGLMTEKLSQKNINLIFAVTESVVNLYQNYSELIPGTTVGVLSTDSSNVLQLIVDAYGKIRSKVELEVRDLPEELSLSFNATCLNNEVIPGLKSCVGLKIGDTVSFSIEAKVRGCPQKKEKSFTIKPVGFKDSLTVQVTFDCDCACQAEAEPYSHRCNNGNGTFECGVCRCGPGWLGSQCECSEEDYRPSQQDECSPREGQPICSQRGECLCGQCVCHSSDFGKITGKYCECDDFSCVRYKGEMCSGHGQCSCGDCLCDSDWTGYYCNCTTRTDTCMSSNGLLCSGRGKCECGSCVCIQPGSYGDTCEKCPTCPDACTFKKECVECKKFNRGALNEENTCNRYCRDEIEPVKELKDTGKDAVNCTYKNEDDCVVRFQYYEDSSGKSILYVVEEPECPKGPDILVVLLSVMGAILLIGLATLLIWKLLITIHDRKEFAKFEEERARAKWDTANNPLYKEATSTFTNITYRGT
Chain of active GPIIb-IIIa (αIIbβ3) integrin on thrombin-activated platelets (sheep) (chain, as listed by the source, chain 1 of 2): as the sequence (chain, as listed by the source, chain 1 of 2) above
Chain of active GPIIb-IIIa (αIIbβ3) integrin on thrombin-activated platelets (sheep) (chain, as listed by the source, chain 2 of 2): as the sequence (chain, as listed by the source, chain 2 of 2) above

Molecule: CC(=O)Oc1ccccc1C(=O)O [ASA, acetylsalicylic acid]
inhibition at 100 µM [1]: 23.8 ± 4.26% | inhibition at 100 µM [2]: 27.6 ± 2.71% | inhibition at 100 µM [3]: 20.5 ± 1.04% | Thrombus weight [4]: 49.27 ± 10.73 mg

Molecule: CC(C)[C@@H]1NC(=O)[C@@H](Cc2ccccc2)NC(=O)[C@H](CC(=O)O)NC(=O)CNC(=O)[C@H](CCCNC(=N)N)NC1=O [cRGD, cyclo(Arg-Gly-Asp-d-Phe-Val)]
IC50 [5]: 460 µM

Molecule: tPA: Tissue plasminogen activator (tPA, alteplase), product of Boehringer Ingelheim
Blood clot lysis (in words) (Halo blood clots): complete blood clot lysis | Area of fibrin lysis ring (fibrin clot): 1.18 ± 0.17 cm^2 | Half-life [7]: 2~6 min

B3: RGD-coated red blood cell-derived vesicles without drug (RGD-RBCVs) (other)
peptide: C([maleimidomethyl‑cyclohexane‑carboxamide-DSPE])RGD
notes: Vesicle labelled with NBD-PE for flow cytometry and CLSM, or with NBD-PE and Rhod-PE for FRET; also called NBD-labelled RGD-RBCVs
fold increase in fluorescence intensity against NBD-labelled RBCVs [11]: > 4 fold | fold enhancement in binding affinity (MFI) against RBCVs [12]: ~4 fold

Continued, values first:

IC50 (peptide concentration for 50% inhibition of fibrinogen-mediated platelet aggregation in PRP, thrombin 4 µM) [6]: 382 µM
Molecule: linear RGD peptide (Arg-Gly-Asp), free

fold increase in fluorescence intensity against FITC-labelled tPA-RBCVs [8]: > 4 fold | fold enhancement in binding affinity (MFI) against tPA-RBCVs [9]: ~4 fold
B1: tPA-loaded, RGD-coated red blood cell-derived vesicles (tPA-RGD-RBCVs) (other)
peptide: C([maleimidomethyl‑cyclohexane‑carboxamide-DSPE])RGD
modifications: also: many copies anchored in red blood cell-derived vesicle membrane, tPA encapsulated
notes: also called FITC-labelled tPA-RGD-RBCVs; fibrinogen-mimicking RBCV

IC50 (peptide concentration for 50% inhibition of fibrinogen-mediated platelet aggregation in PRP, thrombin 4 µM) [10]: 0.46 mM
B2: cyclo(Arg-Gly-Asp-d-Phe-Val), free (peptide)
peptide: cyclo(RGD[dF]V)
